{
  "source": "patent US8828993B2",
  "about": "“Psychotropic agents having glutamate NMDA activity” (Ramot At Tel-Aviv University Ltd., priority 2006, dated 2014)",
  "key": {"mice": {"system": "mice", "assay": "Open field exploratory locomotor activity", "type": "in vivo", "conditions": "for sedative effect: mice, i.p.", "text": "Open Field Exploratory Locomotor Activity\nThe procedure consists of subjecting an animal, usually a rodent, to an unknown large environment from which escape is prevented by surrounding walls. The open field test is now one of the most popular procedures in animal psychology (Crawley, et al., Exploratory behavior models of anxiety in mice, Neurosci Biobehav Rev 9 (1985), pp. 37-44). The procedure involves forced confrontation of a rodent with the situation. The animal is placed in the center or close to the walls of the apparatus and the following behavioral items are recorded for a period ranging from 5 to 20 minutes: horizontal locomotion, and frequency of rearing or leaning. In such a situation, rodents spontaneously prefer the periphery of the apparatus to activity in the central parts of the open field. Increase in time spent in the central part as well as of the ratio central/total locomotion or decrease of the latency to enter the central part are indications of anxiolysis.\nIn a typical test, an individual mouse was placed in a novel environment of a square open field (50×50 cm), the floor of which had been divided into 3 areas, as shown below. The area within 10 cm of the chamber walls was termed the periphery. […] One hour after drug administration, the animal was placed in the same corner of the field. The animal behavior in the open field was recorded by videotaping for 20-60 minutes and analyzed subsequently digitally using the Noldus software for animal behavior. The measurements included velocity, distance moved, frequency of visits to the central area, number of rearing events.\nThe effect of Compound 1 on the behavior of mice in the open field and the dose-dependent effect following i.p administration were evaluated. Naïve male Mice (Balb/c, Harlan Israel) were used. The animals, divided 3 to 5 animals per group, were administered with Compound 1 (12.5, 25, 50, 75 and 100 mg/kg) 1 hr prior to placing each in an open field. Mice were monitored for 1 hr (every 5 minutes) using the Noldus system, and their distance moved, velocity, time of immobility and number of rearings was recorded.\n(§1) The effect of Compound 6 on the behavior of mice in the open field was also examined. Naïve male mice (Balb/c, Harlan Israel) were used. Animals (6 per group) were administered with Compound 6 (12.5, 25 and 50 mg/kg, i.p.) 1 hr prior to placing each in the open field. Mice were followed for 1 hr (every 5 minutes) using the Noldus system, and their distance moved, velocity, time of immobility and number of rearings was recorded.\nThe effect of oral administration of Compound 1 in the open field was tested by orally administering to male ICR mice varying amounts of Compound 1 (5, 10 and 20 mg/kg) or vehicle. Animals were placed in the open field 1 hr after drug administration and horizontal and vertical behavior was recorded for 20 minutes.\nas §1, with “The dose-dependent” for “The”, “3 administered i.p.” for “6 on the behavior of mice”, “tested.” for “examined.”, “Animals” for “Animals (6 per group)”, “3” for “6”, “i.p., 6 per group)” for “i.p.)”\nAnimals were administered orally with Compound 1 (5, 10 and 20 mg/kg) or with a vehicle. Animals were placed in the open field 1 hr after drug administration and animal track was registered for 20 minutes. The time spent in the center (zone 3) and the frequency to the center were indicators of anxiety."}, "[1]": {"system": "rats pretreated with MK-801", "assay": "Morris Water Maze in rats pretreated with MK-801", "type": "in vivo", "conditions": "rats pretreated with MK-801 0.15 mg/kg i.p.", "method": "(§2) The Morris Water Maze is a well known test aimed to assess spatial cognitive tasks (Anger, et al., Animal test systems to study behavioral dysfunctions of neurodegenerative disorders, Neurotoxicology, 12, 403-13 (1991)). The maze consists of a circular pool measuring 1.80 m in diameter 60 cm in height. The pool was filled with water (21±1° C.) to a depth of 30 cm. A circular hidden escape platform (10 cm in diameter) was placed just below the water surface. The test room contained several permanent extra maze cues such as the rat housing rack, laboratory table, posters on the walls, etc.\nas §2, with “tasks.” for “tasks (Anger, et al., Animal test systems to study behavioral dysfunctions of neurodegenerative disorders, Neurotoxicology, 12, 403-13 (1991)).”\nIn the experiment rats were given Compound 1 orally on day 1 and the first test begun 90 minute later, six trials per day, for 3 consecutive days, to find the hidden platform (acquisition phase). The escape latency, i.e., the time required by the rat to find and climb onto the platform, was recorded for up to 120 sec. Each rat was allowed to remain on the platform for 30 sec, after which it was removed to its home cage.\nA video camera was placed above the center of the pool for tracking the rat, and a video tracking system (Noldus) with online digital output directly fed data into a computer. Data were analyzed using EthoVision automated tracking system software (Noldus).\nCompound 1 at both doses decreased the latency to the platform on day 3 of the experiment but not on days 1 and 2.\nThe relief of cognitive impairments was also shown in the use of Compound 6. […] Compound 6 at 10 mg/kg decreased the latency to the platform on days 2 and 3 of the experimentation."}, "[2]": {"conditions": "male ICR mice, oral 10 and 20 mg/kg, 1 hr after administration, 20 minutes"}, "[3]": {"conditions": "Balb/c mice, 12.5, 25 and 50 mg/kg i.p."}},
  "note": "Where a name gives a salt, the structure may show the parent alone.",
  "data": [
    {"smiles": "COC(=O)C(N)CN1CCN(C2=Nc3ccccc3Nc3sc(C)cc32)CC1", "note": "(stereo not shown) [Compound 1, 2-amino-3-[4-(2-methyl-10H-thieno[2,3-b][1,5]benzodiazepin-4-yl)-piperazin-1-yl]-propionic acid, methyl ester hydrochloride salt]", "values": [
      {"measurement": "horizontal and vertical motility parameters", "setting": "mice; Balb/c mice, 12.5 mg/kg i.p.", "result": "did not modify significantly"},
      {"measurement": "rearing frequency", "setting": "mice; Balb/c mice, 12.5 mg/kg i.p.", "result": "tended to increase"},
      {"measurement": "sedative effect / motility", "setting": "mice; Balb/c mice, doses higher than 50 mg/kg i.p.", "result": "marked sedative effect"},
      {"measurement": "horizontal and vertical motility", "setting": "mice; Balb/c mice, doses up to 50 mg/kg i.p.", "result": "mild inhibition"},
      {"measurement": "horizontal and vertical motility", "setting": "mice; Balb/c mice, i.p. 12.5, 25, 50, 75 and 100 mg/kg, 1 hr prior, monitored 1 hr", "result": "dose dependent decrease"},
      {"measurement": "anxiety parameters (time spent in the center and frequency to the center)", "setting": "mice; male ICR mice, 20 mg/kg p.o., 1 hr before, 20 minutes", "result": "anxiolytic activity"},
      {"measurement": "horizontal behavior (velocity and distance moved)", "setting": "mice; [2]", "result": "slightly decreased"},
      {"measurement": "vertical behavior (number of rearings)", "setting": "mice; [2]", "result": "increased"},
      {"measurement": "sedative effect", "setting": "mice", "result": "mild sedative effect"},
      {"measurement": "latency to the platform", "setting": "[1]; 10 and 20 mg/kg p.o. on day 1, day 3", "result": "decreased"}
    ]},
    {"smiles": "CNC(CN1CCN(C2=Nc3ccccc3Nc3sc(C)cc32)CC1)C(=O)OC", "note": "(stereo not shown) [Compound 6, 2-N-methylamino-3-[4-(2-methyl-10H-thieno[2,3-b][1.5]benzodiazepin-4-yl)-piperazin-1-yl]propionic acid, methyl ester trihydrochloride salt]", "values": [
      {"measurement": "duration of “not moving” periods", "setting": "mice; [3]", "result": "increased"},
      {"measurement": "horizontal (distance) and vertical motility (number of rearings)", "setting": "mice; [3]", "result": "inhibition"},
      {"measurement": "motility (distance moved and velocity)", "setting": "mice; Balb/c mice, 12.5, 25 and 50 mg/kg i.p., 1 hr prior", "result": "dose dependent decrease"},
      {"measurement": "effect on motility (distance moved and velocity)", "setting": "mice; Balb/c mice, up to 50 mg/kg i.p.", "result": "mild"},
      {"measurement": "sedative effect", "setting": "mice", "result": "mild sedative effect"},
      {"measurement": "latency to the platform", "setting": "[1]; 10 mg/kg p.o. once on day 1, days 2 and 3", "result": "decreased"}
    ]}
  ]
}
